As usually defined, the solubility is the concentration that dissolves in the medium under given conditions.

In brackets after ≈: the same amount, converted by molar mass. Entries after “also recorded” stand apart in the source; their conditions may differ. Where a name gives a salt, the structure may show the parent alone.

This is an account of results in patent US20230202982A1, “5-CHLORO-4-HYDROXY-1-METHYL-2-OXO-N-PHENYL-QUINOLINE-3-CARBOXAMIDE POTASSIUM SALT FOR TREATING INFLAMMATORY BOWEL DISEASES” (Aqilion AB, priority 2020, published 2023).

A short description of data set [1]: Slurry in water for 48 hours, re-examined by XRPD (disproportionation). The following applies: slurry in water 20 mg / 400 uL, ambient temperature. Format: physicochemical. As to the method:
When a sample of Example compound 1 was stored in a slurry in water at 20 mg / 400uL for 48 hours at ambient temperature, recovered, dried by evaporation and re-examined by XRPD, there was no change in the X-ray diffractogram.

Data set [2] in a line: Thermogravimetric analysis (TGA) and differential scanning calorimetry (DSC). Type of data set: physicochemical. The following applies: heating 20° C./min, nitrogen. On the procedure:
For the TGA analysis, approximately 5-10 mg of sample of Example Compound 1 was accurately weighed into a pierced Tzero aluminium pan and sealed with a pinhole lid using a crimper. The sample was then loaded into the chamber of a TGA thermal analyser at ambient temperature. A TA Instruments TGA5500 device was used. The sample was then heated at a rate of 20° C./min from 20° C. to 400° C. The purge gas used was nitrogen at a flow rate of 50 cm^3/min.
For the DSC analysis, approximately 2 mg of sample was accurately weighed into a pierced Tzero aluminium pan and sealed using a universal crimper. The sample was then loaded into the chamber of a DSC analyser at ambient temperature. A TA Instruments DSC2500 device was used. The sample was then heated at a rate of 20° C./min from 30° C. to 400° C. The purge gas used was nitrogen at a flow rate of 50 cm^3/min

A short description of data set [3]: Hygroscopicity by Dynamic Vapour Sorption (DVS). Type of data set: physicochemical. The following applies: 25° C.; for Hygroscopicity: DVS, 0 to 90% RH; for Reversible weight gain (DVS): analysed to 80% RH. On the procedure:
Dynamic Vapour Sorption (DVS) analysis was carried out on a sample of Example compound 1.
Approximately 20 mg of sample was placed into a wire-mesh vapour sorption balance pan and loaded into an ‘IgaSorp’ vapour sorption balance (Hiden Analytical Instruments). The sample was then dried by maintaining a 0% humidity environment until no further weight change was recorded.
The sample was then subjected to a step profile from 0 to 90% RH at 10% RH increments. The desorption isotherm was from 90% RH o 0% RH in 10% RH steps. The weight change during the sorption/desorption cycles were then monitored, allowing for the hygroscopic nature of the sample to be determined. Analysis was performed using the following parameters: • Analysis Mode F1 • Wait Time 99% • Sample Temperature 25° C. • Min Time Out 30 Mins • MaxTime Out 180 Mins • Gas Flow Rate 250 ml/min

In data set [4] the test system is Ulcerative Colitis modelled by Dextran Sulphate Sodium (DSS). Kind of data set: DSS mouse model of Ulcerative Colitis. Type of data set: in vivo, C57B1/6 mice. As to conditions: 1 mg/kg daily oral; for Colitis clinical score: Day 9, vs vehicle-treated controls, FIG. 8; for Colon length: Day 10 termination, FIG. 10. On the procedure:
Ulcerative Colitis was modelled in C57B1/6 mice by administering Dextran Sulphate Sodium (DSS) in drinking water (1.5% w/v) for 5 days. Mice were monitored daily for weight loss and clinical symptoms of disease for 10 days starting at the beginning of DSS administration.
Anti-TNFα antibody was administered at 500 µg/treatment on Days 0, 2, 4, and 6. Following termination on Day 10, colons were removed and measured. The length and weight of the colon were also assessed.
Compared to naive animals, animals given DSS water developed clinical signs of disease including weight loss and diarrhoea as well as gross pathological signs of disease on experiment termination. […] Shortened length and increased weight:length ratio indicates edema associated with ulcerative colitis.

A short description of data set [5]: Solubility in PBS (pH 7.4) and simulated colonic fluid, saturated solutions by HPLC-UV. Format: physicochemical. The following applies: saturated solution, ambient temperature. On the procedure: The solubility and stability at room temperature of Example compound 1 and the free acid compound 5-chloro-4-hydroxy-1-methyl-2-oxo-N-phenyl-quinoline-3-carboxamide (described in Example 1a) above) was determined in PBS (pH 7.4) and in simulated colonic fluid (SCF) at ambient temperature. The SCF was the product FaSSCof obtained from Biorelevant.com prepared according to the manufacturer’s instructions. FaSSCof contains 0.15 mM sodium cholate, 0.3 mM Phospholipids, 0.1 mM Oleate, 120 mM sodium hydroxide, 45 mM TRIS and 76 mM maleate.
Saturated solutions were prepared in these solvents and the concentrations/impurity profile was determined by HPLC-UV using a calibration curve in the range of 1 to 150 µg/ml at 300 nm or 320 nm. Visual evaluation was also performed after every step over the testing period.

The mark [6] stands for this setting: listed as 5-chloro-4-hydroxy-1-methyl-2-oxo-N-phenyl-quinoline-3-carboxamide free acid.

In the case of `Cn1c(=O)c(C(=O)Nc2ccccc2)c(O)c2c(Cl)cccc21` [Example compound 2, 5-chloro-4-hydroxy-1-methyl-2-oxo-N-phenyl-quinoline-3-carboxamide sodium salt], the “Stability in water slurry: change in X-ray diffractogram” value in data set [1] is “slight changes”. For the same compound, in data set [2] (listed as 5-chloro-4-hydroxy-1-methyl-2-oxo-N-phenyl-quinoline-3-carboxamide sodium salt, sodium salt), the Degradation temperature entry was “around 350 °C”. Besides, in data set [2] (listed as Example Compound 2, sodium salt), the Degradation temperature is 350 °C ±2 °C. In addition, in data set [3], the Hygroscopicity entry is recorded as “slightly hygroscopic” and the “Reversible weight gain (DVS)” value amounted to 1%.
Take `Cn1c(=O)c(C(=O)Nc2ccccc2)c([O-])c2c(Cl)cccc21.[Li+]` [Example compound 3, 5-chloro-4-hydroxy-1-methyl-2-oxo-N-phenyl-quinoline-3-carboxamide lithium salt]: the “Stability in water slurry: change in X-ray diffractogram” value in data set [1] is reported as “slight changes”. In addition, the Degradation temperature result was “around 360 °C” in data set [2] (listed as 5-chloro-4-hydroxy-1-methyl-2-oxo-N-phenyl-quinoline-3-carboxamide lithium salt, lithium salt) and 360 °C ±2 °C in data set [2] (listed as Example Compound 3, lithium salt). Besides, the Hygroscopicity entry in data set [3] is recorded as “slightly hygroscopic”. Besides, the “Reversible weight gain (DVS)” value in data set [3] is given as “less than 0.25%”.
Regarding `Cn1c(=O)c(C(=O)Nc2ccccc2)c(O)c2c(Cl)cccc21` [Free Acid, 5-chloro-4-hydroxy-1-methyl-2-oxo-N-phenyl-quinoline-3-carboxamide], the Colitis clinical score result is “protective effect against the development of the clinical symptoms” in data set [4], “significant reduction” in data set [4] (setting [6]) and “lower colitis score” in data set [4] (listed as 5-chloro-4-hydroxy-1-methyl-2-oxoN-phenyl-quinoline-3-carboxamide free acid). In addition, the Colon length result is “effective at reducing colon shortening” in data set [4] (vs vehicle-treated controls) and “significant increase; also recorded: greater colon length” in data set [4] (vs vehicle-treated controls, listed as 5-chloro-4-hydroxy-1-methyl-2-oxo-N-phenyl-quinoline-3-carboxamide free acid). Also, the “Body weight change (% change from day 1 of experiment)” value in data set [4] (vs vehicle-treated controls, FIG. 9) is “reduced weight loss”. Further, the Degradation temperature in data set [2] was 260 °C ±2 °C; in data set [2] (setting [6]) it was 260 °C. In addition, the “Solubility in PBS (pH7.4)” value in data set [5] (PBS (pH 7.4), listed as 5-chloro-4-hydroxy-1-methyl-2-oxo-N-phenyl-quinoline-3-carboxamide free acid) is “not quantifiable; also recorded: Non quantifiable”. The solubility in data set [5] (simulated colonic fluid (FaSSCof), fassgf or other biorelevant, thermodynamic from solid, SCF (FaSSCof), read-out: Solubility in simulated colonic fluid (SCF)) was 3.44 µg/mL (≈ 10.5 µM).
